From US12678446B2 (PFIZER INC., priority 2020, dated 2026) come the findings set out here.

The subject of data set [1] is RSV (RSV A2 ECACC, 0709161v). Put plainly: RSV plaque reduction assay. It is filed as cell-based, respiratory syncytial virus. The conditions noted are these: human respiratory syncytial virus, HepG2, read-out: RSV A2 Plaque EC50, RSV A2 in Hep-G2 cells; mean of at least two experiments unless noted (n = 1). The method, boiled down:
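Hep-G2 monolayers infected with 100 PFU/well RSV A2 premixed with eight serial compound dilutions (2 h, 37° C.), then kept 2 days under CMC overlay with compound in DMEM/2% FBS. Plaques immunostained (HRP/TrueBlue) and counted; % infection versus virus control gives EC50, mean of at least two experiments, rounded.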
A general note: In a plaque reduction assay, fewer plaques than in the control indicate reduced infectivity or spread.

A short description of another data set: cell toxicity CC50. The data set is classed as cell-based. Particulars: human; Hep-G2 cells; mean of at least two experiments; read-out: Cell Cytotoxicity CC50.

A value given as a limit tells only on which side of the number the result lay.

Consider `C[C@@H]1CCn2nc(-c3ccc(CC(C)(C)O)nc3)c(C(=O)N[C@H]3N=C(c4ccccc4)c4cccc(F)c4NC3=O)c2O1` [Example 85, (5R)-2-[6-(2-Hydroxy-2-methylpropyl)pyridin-3-yl]-5-methyl-N-[(3S)-9-fluoro-2-oxo-5-phenyl-1,3-dihydro-1,4-benzodiazepin-3-yl]-6,7-dihydro-5H-pyrazolo[5,1-b][1,3]oxazine-3-carboxamide], for which the EC50 in data set [1] was determined as 121 nM. Moreover, the 50% cytotoxic concentration (CC50) in “cell toxicity CC50” is greater than 25000 nM.

As to `C[C@@H]1CCn2nc(-c3ccc(N4C[C@H]5C[C@@H]4CO5)nc3)c(C(=O)N[C@H]3N=C(c4ccccc4)c4cccc(F)c4NC3=O)c2O1` [Example 86, (5R)-5-Methyl-N-[(3S)-9-fluoro-2-oxo-5-phenyl-1,3-dihydro-1,4-benzodiazepin-3-yl]-2-[6-[(1R,4R)-2-oxa-5-azabicyclo[2.2.1]heptan-5-yl]pyridin-3-yl]-6,7-dihydro-5H-pyrazolo[5,1-b][1,3]oxazine-3-carboxamide], the concentration giving a half-maximal response (EC50) in data set [1] turned out to be 44 nM. The CC50 in the data set “cell toxicity CC50” was greater than 25000 nM.

Consider `Cc1cc(NC(C)C)ncc1-c1nn2c(c1C(=O)N[C@H]1N=C(c3ccccc3)c3cccc(F)c3NC1=O)O[C@H](C)CC2` [Example 92, (5R)-5-Methyl-2-[4-methyl-6-(propan-2-ylamino)pyridin-3-yl]-N-[(3S)-9-fluoro-2-oxo-5-phenyl-1,3-dihydro-1,4-benzodiazepin-3-yl]-6,7-dihydro-5H-pyrazolo[5,1-b][1,3]oxazine-3-carboxamide], for which the concentration giving a half-maximal response (EC50) in data set [1] worked out at 131 nM. Moreover, the CC50 in “cell toxicity CC50” is greater than 25000 nM.

With `C[C@H]1CCn2nc(-c3ccc(N4C[C@H]5C[C@@H]4CO5)nc3)c(C(=O)N[C@H]3N=C(c4ccccc4)c4cccc(F)c4NC3=O)c2O1` [Example 94, (5S)-5-Methyl-N-[(3S)-9-fluoro-2-oxo-5-phenyl-1,3-dihydro-1,4-benzodiazepin-3-yl]-2-[6-[(1R,4R)-2-oxa-5-azabicyclo[2.2.1]heptan-5-yl]pyridin-3-yl]-6,7-dihydro-5H-pyrazolo[5,1-b][1,3]oxazine-3-carboxamide], the EC50 in data set [1] worked out at 44 nM. Moreover, the CC50 in “cell toxicity CC50” was greater than 25000 nM.

On to `C[C@@H]1CCn2nc(Nc3ccccc3)c(C(=O)N[C@H]3N=C(c4ccccc4)c4cccc(F)c4NC3=O)c2O1` [Example 95, (5R)-2-Anilino-5-methyl-N-[(3S)-9-fluoro-2-oxo-5-phenyl-1,3-dihydro-1,4-benzodiazepin-3-yl]-6,7-dihydro-5H-pyrazolo[5,1-b][1,3]oxazine-3-carboxamide], for which the EC50 in data set [1] is 357 nM. Also, the CC50 in “cell toxicity CC50” was greater than 25000 nM.

Turning to `C[C@@H]1CCn2nc(Nc3ccccc3)c(C(=O)N[C@H]3N=C(c4ccccc4)c4ccccc4NC3=O)c2O1` [Example 96, (5R)-2-Anilino-5-methyl-N-[(3S)-2-oxo-5-phenyl-1,3-dihydro-1,4-benzodiazepin-3-yl]-6,7-dihydro-5H-pyrazolo[5,1-b][1,3]oxazine-3-carboxamide], the concentration giving a half-maximal response (EC50) in data set [1] amounted to 464 nM. For the same molecule, in the data set “cell toxicity CC50”, the CC50 is greater than 25000 nM.

Turning to `C[C@@H]1CCn2nc(Nc3ccc(F)cc3)c(C(=O)N[C@H]3N=C(c4ccccc4)c4cccc(F)c4NC3=O)c2O1` [Example 97, (5R)-2-(4-Fluoroanilino)-N-[(3S)-9-fluoro-2-oxo-5-phenyl-1,3-dihydro-1,4-benzodiazepin-3-yl]-5-methyl-6,7-dihydro-5H-pyrazolo[5,1-b][1,3]oxazine-3-carboxamide], in data set [1], the concentration giving a half-maximal response (EC50) worked out at 439 nM. Also, the 50% cytotoxic concentration (CC50) in “cell toxicity CC50” is greater than 25000 nM.

On to `C[C@@H]1CCn2nc(-c3cnn(C)c3)c(C(=O)N[C@H]3N=C(c4ccccc4)c4cccc(F)c4NC3=O)c2O1` [Example 98, (5R)-N-[(3S)-9-fluoro-2-oxo-5-phenyl-1,3-dihydro-1,4-benzodiazepin-3-yl]-5-methyl-2-(1-methylpyrazol-4-yl)-6,7-dihydro-5H-pyrazolo[5,1-b][1,3]oxazine-3-carboxamide], for which, in data set [1], the EC50 was determined as 80 nM. In addition, the CC50 in “cell toxicity CC50” is greater than 25000 nM.

For `CCn1cc(-c2nn3c(c2C(=O)N[C@H]2N=C(c4ccccc4)c4cccc(F)c4NC2=O)OCCC3)cn1` [Example 99, 2-(1-Ethylpyrazol-4-yl)-N-[(3S)-9-fluoro-2-oxo-5-phenyl-1,3-dihydro-1,4-benzodiazepin-3-yl]-6,7-dihydro-5H-pyrazolo[5,1-b][1,3]oxazine-3-carboxamide], the half-maximal effective concentration (EC50) in data set [1] stood at 71 nM. The cytotoxic concentration (CC50) in the data set “cell toxicity CC50” is greater than 25000 nM.

As for `CN(C)Cc1ccc(-c2nn3c(c2C(=O)N[C@H]2N=C(c4ccccc4)c4cccc(F)c4NC2=O)OCCC3)c(F)c1` [Example 100], in data set [1], the EC50 worked out at 75 nM. Further, the cytotoxic concentration (CC50) in “cell toxicity CC50” was greater than 25000 nM.

`O=C(N[C@H]1N=C(c2ccccc2)c2cccc(F)c2NC1=O)c1c(-c2ccc(CN3CCOCC3)cc2F)nn2c1OCCC2` [Example 101, 2-[2-Fluoro-4-(morpholin-4-ylmethyl)phenyl]-N-[(3S)-9-fluoro-2-oxo-5-phenyl-1,3-dihydro-1,4-benzodiazepin-3-yl]-6,7-dihydro-5H-pyrazolo[5,1-b][1,3]oxazine-3-carboxamide]: the EC50 in data set [1] is 123 nM. Further, the 50% cytotoxic concentration (CC50) in the data set “cell toxicity CC50” was greater than 25000 nM.

With `CCN(CC)Cc1ccc(-c2nn3c(c2C(=O)N[C@H]2N=C(c4ccccc4)c4cccc(F)c4NC2=O)OCCC3)c(F)c1` [Example 102, 2-[4-(Diethylaminomethyl)-2-fluorophenyl]-N-[(3S)-9-fluoro-2-oxo-5-phenyl-1,3-dihydro-1,4-benzodiazepin-3-yl]-6,7-dihydro-5H-pyrazolo[5,1-b][1,3]oxazine-3-carboxamide], in data set [1], the EC50 was 135 nM. For the same molecule, the CC50 in the data set “cell toxicity CC50” was greater than 25000 nM.

For `CC(C)n1cc(-c2nn3c(c2C(=O)N[C@H]2N=C(c4ccccc4)c4ccccc4NC2=O)OCCC3)cn1` [Example 103, N-[(3S)-2-oxo-5-phenyl-1,3-dihydro-1,4-benzodiazepin-3-yl]-2-(1-propan-2-ylpyrazol-4-yl)-6,7-dihydro-5H-pyrazolo[5,1-b][1,3]oxazine-3-carboxamide], the EC50 in data set [1] was 132 nM. Moreover, the CC50 in the data set “cell toxicity CC50” was greater than 25000 nM.

In the case of `CC1(Cn2cc(-c3nn4c(c3C(=O)N[C@H]3N=C(c5ccccc5)c5cccc(F)c5NC3=O)OCCC4)cn2)COC1` [Example 104, N-[(3S)-9-fluoro-2-oxo-5-phenyl-1,3-dihydro-1,4-benzodiazepin-3-yl]-2-[1-[(3-methyloxetan-3-yl)methyl]pyrazol-4-yl]-6,7-dihydro-5H-pyrazolo[5,1-b][1,3]oxazine-3-carboxamide], the half-maximal effective concentration (EC50) in data set [1] turned out to be 128 nM. Moreover, in “cell toxicity CC50”, the CC50 is greater than 25000 nM.

On to `CC1CCOc2c(C(=O)N[C@H]3N=C(c4ccccc4)c4cccc(F)c4NC3=O)c(-c3ccccc3F)nn21` (stereo partly drawn) [Example 105, N-[(3S)-9-fluoro-2-oxo-5-phenyl-1,3-dihydro-1,4-benzodiazepin-3-yl]-2-(2-fluorophenyl)-7-methyl-6,7-dihydro-5H-pyrazolo[5,1-b][1,3]oxazine-3-carboxamide], for which the half-maximal effective concentration (EC50) in data set [1] is 48 nM. In addition, the CC50 in “cell toxicity CC50” was greater than 25000 nM.

Take `CCN(C(=O)OC(C)(C)C)C1COc2c(C(=O)N[C@H]3N=C(c4ccccc4)c4cccc(F)c4NC3=O)c(-c3ccccc3F)nn2C1` (stereo partly drawn) [Example 108, tert-butyl N-ethyl-N-[3-[[(3S)-9-fluoro-2-oxo-5-phenyl-1,3-dihydro-1,4-benzodiazepin-3-yl]carbamoyl]-2-(2-fluorophenyl)-6,7-dihydro-5H-pyrazolo[5,1-b][1,3]oxazin-6-yl]carbamate]: the EC50 in data set [1] was 117 nM. Further, the CC50 in the data set “cell toxicity CC50” is greater than 25000 nM.

Consider `C[C@@H]1CCn2nc(C3CCCCC3)c(C(=O)N[C@H]3N=C(c4ccccc4)c4cccc(F)c4NC3=O)c2O1` [Example 114, (5R)-2-Cyclohexyl-N-[(3S)-9-fluoro-2-oxo-5-phenyl-1,3-dihydro-1,4-benzodiazepin-3-yl]-5-methyl-6,7-dihydro-5H-pyrazolo[5,1-b][1,3]oxazine-3-carboxamide], for which the concentration giving a half-maximal response (EC50) in data set [1] was 117 nM. In addition, the half-maximal cytotoxic concentration (CC50) in “cell toxicity CC50” was found to be 17100 nM.

With `Cc1nn(C)cc1-c1nn2c(c1C(=O)N[C@H]1N=C(c3ccccc3)c3cccc(F)c3NC1=O)O[C@H](C)CC2` [Example 115, (5R)-2-(1,3-Dimethylpyrazol-4-yl)-N-[(3S)-9-fluoro-2-oxo-5-phenyl-1,3-dihydro-1,4-benzodiazepin-3-yl]-5-methyl-6,7-dihydro-5H-pyrazolo[5,1-b][1,3]oxazine-3-carboxamide], the concentration for a half-maximal effect (EC50) in data set [1] turned out to be 226 nM. Also, in the data set “cell toxicity CC50”, the CC50 is greater than 25000 nM.

Regarding `C[C@@H]1CCn2nc(-c3cnn(C4COC4)c3)c(C(=O)N[C@H]3N=C(c4ccccc4)c4cccc(F)c4NC3=O)c2O1` [Example 116, (5R)-N-[(3S)-9-fluoro-2-oxo-5-phenyl-1,3-dihydro-1,4-benzodiazepin-3-yl]-5-methyl-2-[1-(oxetan-3-yl)pyrazol-4-yl]-6,7-dihydro-5H-pyrazolo[5,1-b][1,3]oxazine-3-carboxamide], the half-maximal effective concentration (EC50) in data set [1] worked out at 127 nM. Besides, in the data set “cell toxicity CC50”, the CC50 is greater than 25000 nM.

Regarding `C[C@@H]1CCn2nc(-c3cnn(CCO)c3)c(C(=O)N[C@H]3N=C(c4ccccc4)c4cccc(F)c4NC3=O)c2O1` [Example 117, (5R)-N-[(3S)-9-fluoro-2-oxo-5-phenyl-1,3-dihydro-1,4-benzodiazepin-3-yl]-2-[1-(2-hydroxyethyl)pyrazol-4-yl]-5-methyl-6,7-dihydro-5H-pyrazolo[5,1-b][1,3]oxazine-3-carboxamide], the EC50 in data set [1] turned out to be 434 nM. The CC50 in “cell toxicity CC50” was greater than 25000 nM.

For `C[C@@H]1CCn2nc(-c3cnn(CC(F)(F)F)c3)c(C(=O)N[C@H]3N=C(c4ccccc4)c4cccc(F)c4NC3=O)c2O1` [Example 118, (5R)-N-[(3S)-9-fluoro-2-oxo-5-phenyl-1,3-dihydro-1,4-benzodiazepin-3-yl]-5-methyl-2-[1-(2,2,2-trifluoroethyl)pyrazol-4-yl]-6,7-dihydro-5H-pyrazolo[5,1-b][1,3]oxazine-3-carboxamide], the EC50 in data set [1] turned out to be 43 nM. Also, in the data set “cell toxicity CC50”, the cytotoxic concentration (CC50) was greater than 25000 nM.

Usually EC50 stands for the concentration needed to bring the measured effect to its halfway point. In general, CC50 refers to the concentration giving 50% cytotoxicity.
